Reference: patent US12029682B2, “Spray ejector mechanisms and devices providing charge isolation and controllable droplet charge, and low dosage volume ophthalmic administration” (EYENOVIA, INC., priority 2012, dated 2024)

System: glaucomatous beagles
Design: species or system beagle dog
Conditions: dog, in vivo
Experimental: All animals are rested a minimum of one week before starting the trials. Intraocular pressure (IOP), pupil diameter (PD), and heart rate (HR) are measured 6 times (at 0, 0:30, 0:45, 1, 2, 7 hrs) daily for five days, for initial baseline levels (Study days 1-5). The basic measurement protocol is followed and performed by the operator. PD is measured via Jameson Caliper (mm horizontally). IOP is measured with a TonoVet instrument with clean probe (iCare). HR is monitored via palpation of the femoral vessels. After two rest days, one eye is randomly assigned to receive the drug delivered via the ejector device and the contralateral eye is given traditional latanoprost from an eye dropper container.
All animals were rested a minimum of one week before starting the trials. Intraocular pressure (IOP), pupil diameter (PD), and heart rate (HR) were measured daily at time 0, 12, 13, 14, 16, and 19 hours for five days starting at approximately 2100 h to establish initial baseline levels (study days 1-5). […] PD was measured via Jameson Caliper (mm horizontally). IOP was measured using a TonoVet instrument with clean probe (iCare). HR was monitored via palpation of the femoral vessels. […]
Following a 7 day rest period, the eye choice was reversed. […] A veterinary ophthalmologist evaluated each test subject before and after the study for evidence of ocular side effects. […]

CC(C)OC(=O)CCC/C=C\C[C@@H]1[C@@H](/C=C/[C@@H](O)COc2cccc(C(F)(F)F)c2)[C@H](O)C[C@@H]1O [travoprost]
changes in HR: no changes in HR
